Test results published in patent US6753296B1, “Method for improving plant growth” (priority 2002, dated 2004).

What was measured:
Format in all cases: in vivo
Canola = experiment: Emergence of canola from treated seed; conditions: seed treatment 300 g per 100 kg seed; vs untreated seeds
Protocol: Canola seed is treated with the composition of the invention containing Thiamethoxam, at a rate of 300 g Thiamethoxam per 100 kg seed, and is seeded following procedures which correspond to conditions found in practice. Untreated seeds from the same origin are used for comparison purposes. Emergence (plants per meter) is evaluated. In the case of treated seeds, about 20% more plants per meter emerge that in the case of untreated plants.

[1] = test system: Eggplant (Solanum melongena L. cv. Marfa); experiment: Vigor of eggplant after drench treatment
Protocol: (§1) Plant are grown in a commercially available pathogen-free soil mixture. 2 weeks (eggplants 3 weeks) after planting seedlings are transplanted into 600 ml pots and drench treated with 10 mg Thiamethoxam in 20 ml water per pot. They were fertilised once or twice a week. Up to 10 weeks after treatment, fresh- and dry-weight of shoots and roots and numbers of leaves are determined. Protein content is measured by the method of Bradford (1976, Anal. Biochem., 72, 248-254) with BSA (bovine serum albumin) as standard: Homogenisation of leaf material in liquid N2 in a mortar. Extraction in phosphate buffer (pH 7.5, 0.1M, 2/1 vol/weight). After centrifugation supematant is separated from pellet and stored at −20° C. until protein determination. For comparison of treated and check, mg proteing/g fresh weight is calculated.
(§2) Tables B2 and B3: Differences between treated plants and Check given as factors (e.g. fresh weight of treated/Fresh weight of check). Factors >1 indicate an enhancement of vigor of treated plants. FW: fresh weight; DW: dry weight; Protein ((mg/g treated plant)/(mg/g check))

[2] = test system: Rice (Orvza sativa L. cv. Nihonbare); experiment: Vigor of rice after drench treatment
Protocol: as §1, §2

Potato = experiment: Crop yield of treated potato tubers; conditions: potato tubers treated at 500 g per 100 kg seed; harvested at maturity; vs untreated tubers
Protocol: Potato tubers are treated with the composition of the invention containing Imidacloprid, at a rate of 500 g Imidacloprid per 100 kg seed and are planted following procedures which correspond to conditions found in practice. The crop is harvested from the field at maturity. Untreated tubers from the same origin are used for comparison purposes.

CN1COCN(Cc2cnc(Cl)s2)/C1=N\[N+](=O)[O-] [Thiamethoxam]
1.0: Protein ((mg/g treated plant)/(mg/g check)) ([1]; week 1, drench 10 mg per pot) | Root DW (factor treated/check) ([1]; week 1, drench 10 mg per pot) | Root FW (factor treated/check) ([1]; week 1, drench 10 mg per pot) | Size (factor treated/check) ([1]; week 1, drench 10 mg per pot) | Protein ((mg/g treated plant)/(mg/g check)) ([1]; week 3, drench 10 mg per pot) | Root DW (factor treated/check) ([1]; week 4, drench 10 mg per pot) | Root FW (factor treated/check) ([1]; week 4, drench 10 mg per pot) | Size (factor treated/check) ([1]; week 4, drench 10 mg per pot) | Protein ((mg/g treated plant)/(mg/g check)) ([1]; week 5, drench 10 mg per pot) | Root DW (factor treated/check) ([1]; week 5, drench 10 mg per pot) | Shoot FW (factor treated/check) ([1]; week 5, drench 10 mg per pot) | Size (factor treated/check) ([1]; week 5, drench 10 mg per pot) | Root FW (factor treated/check) ([2]; week 1, drench 10 mg per pot) | Shoot DW (factor treated/check) ([2]; week 1, drench 10 mg per pot) | Shoot FW (factor treated/check) ([2]; week 1, drench 10 mg per pot) | Size (factor treated/check) ([2]; week 1, drench 10 mg per pot) | Protein ((mg/g treated plant)/(mg/g check)) ([2]; week 2, drench 10 mg per pot) | Shoot FW (factor treated/check) ([2]; week 2, drench 10 mg per pot) | Size (factor treated/check) ([2]; week 2, drench 10 mg per pot) | Protein ((mg/g treated plant)/(mg/g check)) ([2]; week 3, drench 10 mg per pot) | Size (factor treated/check) ([2]; week 3, drench 10 mg per pot) | Protein ((mg/g treated plant)/(mg/g check)) ([2]; week 4, drench 10 mg per pot) | Protein ((mg/g treated plant)/(mg/g check)) ([2]; week 5, drench 10 mg per pot) | Root FW (factor treated/check) ([2]; week 5, drench 10 mg per pot) | Protein ((mg/g treated plant)/(mg/g check)) ([2]; week 6, drench 10 mg per pot) | Protein ((mg/g treated plant)/(mg/g check)) ([2]; week 8, drench 10 mg per pot) | Root DW (factor treated/check) ([2]; week 9, drench 10 mg per pot) | Root FW (factor treated/check) ([2]; week 9, drench 10 mg per pot)
about 20%: Emergence (plants per meter), more plants than untreated (Canola)
1.5: Root FW (factor treated/check) ([2]; week 4, drench 10 mg per pot) | Root DW (factor treated/check) ([2]; week 6, drench 10 mg per pot) | Root DW (factor treated/check) ([2]; week 8, drench 10 mg per pot)
2.5: Protein ((mg/g treated plant)/(mg/g check)) ([1]; week 9, drench 10 mg per pot)
2.0: Root DW (factor treated/check) ([2]; week 10, drench 10 mg per pot) | Root FW (factor treated/check) ([2]; week 10, drench 10 mg per pot)
0.8: Root FW (factor treated/check) ([1]; week 7, drench 10 mg per pot) | Root DW (factor treated/check) ([2]; week 1, drench 10 mg per pot) | Root FW (factor treated/check) ([2]; week 2, drench 10 mg per pot)
1.2: Root DW (factor treated/check) ([1]; week 2, drench 10 mg per pot) | Root FW (factor treated/check) ([1]; week 2, drench 10 mg per pot) | Shoot FW (factor treated/check) ([1]; week 3, drench 10 mg per pot) | Size (factor treated/check) ([1]; week 7, drench 10 mg per pot) | Leaf No (factor treated/check) ([1]; week 8, drench 10 mg per pot) | Size (factor treated/check) ([1]; week 8, drench 10 mg per pot) | Shoot FW (factor treated/check) ([2]; week 3, drench 10 mg per pot) | Shoot DW (factor treated/check) ([2]; week 4, drench 10 mg per pot) | Shoot FW (factor treated/check) ([2]; week 5, drench 10 mg per pot) | Size (factor treated/check) ([2]; week 6, drench 10 mg per pot) | Shoot DW (factor treated/check) ([2]; week 7, drench 10 mg per pot) | Shoot DW (factor treated/check) ([2]; week 9, drench 10 mg per pot) | Shoot FW (factor treated/check) ([2]; week 9, drench 10 mg per pot) | Size (factor treated/check) ([2]; week 9, drench 10 mg per pot)
0.6: Root DW (factor treated/check) ([1]; week 8, drench 10 mg per pot) | Root FW (factor treated/check) ([1]; week 8, drench 10 mg per pot) | Root FW (factor treated/check) ([2]; week 3, drench 10 mg per pot)
0.9: Shoot DW (factor treated/check) ([1]; week 1, drench 10 mg per pot) | Shoot FW (factor treated/check) ([1]; week 1, drench 10 mg per pot) | Root FW (factor treated/check) ([1]; week 5, drench 10 mg per pot) | Root DW (factor treated/check) ([1]; week 6, drench 10 mg per pot) | Root FW (factor treated/check) ([1]; week 6, drench 10 mg per pot) | Shoot DW (factor treated/check) ([1]; week 8, drench 10 mg per pot) | Root FW (factor treated/check) ([1]; week 9, drench 10 mg per pot) | Root DW (factor treated/check) ([2]; week 5, drench 10 mg per pot) | Protein ((mg/g treated plant)/(mg/g check)) ([2]; week 9, drench 10 mg per pot)
1.6: Protein ((mg/g treated plant)/(mg/g check)) ([1]; week 4, drench 10 mg per pot) | Leaf No (factor treated/check) ([1]; week 9, drench 10 mg per pot) | Root FW (factor treated/check) ([2]; week 6, drench 10 mg per pot)
1.4: Protein ((mg/g treated plant)/(mg/g check)) ([1]; week 7, drench 10 mg per pot) | Protein ((mg/g treated plant)/(mg/g check)) ([1]; week 8, drench 10 mg per pot) | Size (factor treated/check) ([1]; week 9, drench 10 mg per pot) | Leaf No (factor treated/check) ([1]; week 10, drench 10 mg per pot) | Size (factor treated/check) ([1]; week 10, drench 10 mg per pot) | Root DW (factor treated/check) ([2]; week 4, drench 10 mg per pot) | Shoot DW (factor treated/check) ([2]; week 8, drench 10 mg per pot) | Shoot FW (factor treated/check) ([2]; week 8, drench 10 mg per pot)
1.8: Root FW (factor treated/check) ([2]; week 8, drench 10 mg per pot)
1.3: Leaf No (factor treated/check) ([1]; week 6, drench 10 mg per pot) | Shoot DW (factor treated/check) ([1]; week 6, drench 10 mg per pot) | Shoot FW (factor treated/check) ([1]; week 6, drench 10 mg per pot) | Size (factor treated/check) ([1]; week 6, drench 10 mg per pot) | Leaf No (factor treated/check) ([1]; week 7, drench 10 mg per pot) | Protein ((mg/g treated plant)/(mg/g check)) ([1]; week 10, drench 10 mg per pot) | Root DW (factor treated/check) ([1]; week 10, drench 10 mg per pot) | Root DW (factor treated/check) ([2]; week 3, drench 10 mg per pot) | Shoot DW (factor treated/check) ([2]; week 3, drench 10 mg per pot) | Shoot FW (factor treated/check) ([2]; week 4, drench 10 mg per pot) | Shoot FW (factor treated/check) ([2]; week 6, drench 10 mg per pot) | Root DW (factor treated/check) ([2]; week 7, drench 10 mg per pot) | Root FW (factor treated/check) ([2]; week 7, drench 10 mg per pot) | Shoot FW (factor treated/check) ([2]; week 7, drench 10 mg per pot) | Shoot DW (factor treated/check) ([2]; week 10, drench 10 mg per pot) | Shoot FW (factor treated/check) ([2]; week 10, drench 10 mg per pot) | Size (factor treated/check) ([2]; week 10, drench 10 mg per pot)
1.1: Protein ((mg/g treated plant)/(mg/g check)) ([1]; week 2, drench 10 mg per pot) | Shoot DW (factor treated/check) ([1]; week 2, drench 10 mg per pot) | Size (factor treated/check) ([1]; week 2, drench 10 mg per pot) | Root DW (factor treated/check) ([1]; week 3, drench 10 mg per pot) | Root FW (factor treated/check) ([1]; week 3, drench 10 mg per pot) | Shoot DW (factor treated/check) ([1]; week 3, drench 10 mg per pot) | Size (factor treated/check) ([1]; week 3, drench 10 mg per pot) | Shoot DW (factor treated/check) ([1]; week 4, drench 10 mg per pot) | Shoot FW (factor treated/check) ([1]; week 4, drench 10 mg per pot) | Leaf No (factor treated/check) ([1]; week 5, drench 10 mg per pot) | Shoot DW (factor treated/check) ([1]; week 5, drench 10 mg per pot) | Protein ((mg/g treated plant)/(mg/g check)) ([1]; week 6, drench 10 mg per pot) | Shoot DW (factor treated/check) ([1]; week 7, drench 10 mg per pot) | Shoot FW (factor treated/check) ([1]; week 7, drench 10 mg per pot) | Root DW (factor treated/check) ([1]; week 9, drench 10 mg per pot) | Shoot DW (factor treated/check) ([1]; week 9, drench 10 mg per pot) | Root FW (factor treated/check) ([1]; week 10, drench 10 mg per pot) | Shoot DW (factor treated/check) ([1]; week 10, drench 10 mg per pot) | Shoot FW (factor treated/check) ([1]; week 10, drench 10 mg per pot) | Protein ((mg/g treated plant)/(mg/g check)) ([2]; week 1, drench 10 mg per pot) | Root DW (factor treated/check) ([2]; week 2, drench 10 mg per pot) | Shoot DW (factor treated/check) ([2]; week 2, drench 10 mg per pot) | Size (factor treated/check) ([2]; week 4, drench 10 mg per pot) | Shoot DW (factor treated/check) ([2]; week 5, drench 10 mg per pot) | Size (factor treated/check) ([2]; week 5, drench 10 mg per pot) | Shoot DW (factor treated/check) ([2]; week 6, drench 10 mg per pot) | Protein ((mg/g treated plant)/(mg/g check)) ([2]; week 7, drench 10 mg per pot) | Size (factor treated/check) ([2]; week 7, drench 10 mg per pot) | Size (factor treated/check) ([2]; week 8, drench 10 mg per pot)
0.7: Shoot FW (factor treated/check) ([1]; week 2, drench 10 mg per pot) | Root DW (factor treated/check) ([1]; week 7, drench 10 mg per pot) | Shoot FW (factor treated/check) ([1]; week 8, drench 10 mg per pot) | Shoot FW (factor treated/check) ([1]; week 9, drench 10 mg per pot) | Protein ((mg/g treated plant)/(mg/g check)) ([2]; week 10, drench 10 mg per pot)

O=[N+]([O-])NC1=NCCN1Cc1ccc(Cl)nc1 [Imidacloprid]
significantly higher: Crop yield (Potato)
